Assay results as given in ChEMBL document CHEMBL1126385, “-alkoxyphenol leukotriene B4 receptor antagonists” (Bioorg Med Chem Lett, 1992).

Tested on: Cavia porcellus
Experiment: Effective dose for inhibition of gas trapping in vivo in a guinea pig model of LTB4-induced airway obstruction
Assay type: functional

## CCOc1cc(CC)c(OCCCCCC(C)(C)c2nn[n-]n2)cc1O.[Na+]
  ED50: 0.3 mg/kg
